Experimental data reported in US4864023A, “Pyrido(3,2,1-IJ)-1,3,4-benzoxadiazine derivatives” (priority 1988, dated 1989).
Converted amounts (≈) assume the structure as drawn. Read-outs that look alike come from different tables or passages of the source.

Legend:
Test in all cases: in vitro antibacterial activity, standard agar dilution method
Assay type in all cases: cell-based
[1] = system: Pseudomonas stutzeri IFO 12695; conditions: Stutzerimonas stutzeri, IFO12695, aerobic, read-out: minimum inhibitory concentration (MIC)
[2] = system: Staphylococcus epidermidis NR 2942; conditions: NR2942, aerobic, read-out: minimum inhibitory concentration (MIC)
[3] = system: Staphylococcus epidermidis IFO 12993; conditions: IFO12993, aerobic, read-out: minimum inhibitory concentration (MIC)
[4] = system: Alcaligenes faecalis IFO 13111; conditions: IFO13111, aerobic, read-out: minimum inhibitory concentration (MIC)
[5] = system: Enterobacter aerogenes NR 2945; conditions: Klebsiella aerogenes, NR2945, aerobic, read-out: minimum inhibitory concentration (MIC)
[6] = system: Staphylococcus aureus Smith; conditions: read-out: minimum inhibitory concentration (MIC)
[7] = system: Staphylococcus aureus NR 2855
[8] = system: Escherichia coli NIHJ JC-2; conditions: NIHJJC2, aerobic, read-out: minimum inhibitory concentration (MIC)
[9] = system: Citrobacter freundii IFO 12681; conditions: IFO12681, aerobic, read-out: minimum inhibitory concentration (MIC)
[10] = system: Salmonella typhimurium IFO 12529; conditions: Salmonella enterica, aerobic, read-out: minimum inhibitory concentration (MIC)
[11] = system: Proteus rettgeri ATCC 14505; conditions: Providencia rettgeri, ATCC14505, aerobic, read-out: minimum inhibitory concentration (MIC)
[12] = system: Enterobacter cloacae NR 2946; conditions: NR2946, aerobic, read-out: minimum inhibitory concentration (MIC)
[13] = system: Enterococcus faecalis NR 2943; conditions: NR2943, aerobic, read-out: minimum inhibitory concentration (MIC)
[14] = system: Proteus vulgaris OX19 ATCC 6898; conditions: ATCC6898, aerobic, read-out: minimum inhibitory concentration (MIC)
[15] = system: Bacillus subtilis PCI 219; conditions: PCI219, aerobic, read-out: minimum inhibitory concentration (MIC)
[16] = system: Serratia marcescens IFO 12648; conditions: IFO12648, aerobic, read-out: minimum inhibitory concentration (MIC)
[17] = system: Escherichia coli NR 2630
[18] = system: Pseudomonas aeruginosa NR 2950; conditions: NR2950, aerobic, read-out: minimum inhibitory concentration (MIC)
[19] = system: Klebsiella pneumoniae FDA PCI 602; conditions: FDAPCI602, aerobic, read-out: minimum inhibitory concentration (MIC)
[20] = system: Staphylococcus aureus FDA 209P JC-1; conditions: FDA209P, read-out: minimum inhibitory concentration (MIC)
[21] = system: Bordetella bronchiseptica ATCC 4617; conditions: ATCC4617, aerobic, read-out: minimum inhibitory concentration (MIC)
[22] = system: Pseudomonas aeruginosa A3; conditions: aerobic, read-out: minimum inhibitory concentration (MIC)
[23] = NR2855, Staphylococcus aureus NR 2855, aerobic, agar dilution, read-out: minimum inhibitory concentration (MIC)
[24] = NR2630, Escherichia coli NR 2630, aerobic, agar dilution, read-out: minimum inhibitory concentration (MIC)
[25] = Staphylococcus aureus Smith, aerobic, agar dilution
[26] = Staphylococcus aureus FDA 209P JC-1, aerobic, agar dilution

SMILES	MIC [1] [µg/mL]	MIC [2] [µg/mL]	MIC [3] [µg/mL]	MIC [4] [µg/mL]	MIC [5] [µg/mL]	MIC [7, 23] [µg/mL]	MIC [8] [µg/mL]	MIC [9] [µg/mL]	MIC [10] [µg/mL]	MIC [11] [µg/mL]	MIC [12] [µg/mL]	MIC [13] [µg/mL]	MIC [14] [µg/mL]	MIC [15] [µg/mL]	MIC [16] [µg/mL]	MIC [18] [µg/mL]	MIC [19] [µg/mL]	MIC [21] [µg/mL]	MIC [22] [µg/mL]	MIC [6, 25] [µg/mL]	also measured
CN1COc2c(N3CCC(O)C3)c(F)cc3c(=O)c(C(=O)O)cn1c23 (stereo not drawn) [Example 21, 9-fluoro-10-(3-hydroxy-1-pyrrolidinyl)-3-methyl-7-oxo-2,3-dihydro-7H-pyrido[3,2,1-ij]-1,3,4-benzoxadiazine-6-carboxylic acid]	0.2 (≈ 0.573 µM)	0.39 (≈ 1.12 µM)	0.39 (≈ 1.12 µM)	0.78 (≈ 2.23 µM)	0.2 (≈ 0.573 µM)	0.2 (≈ 0.573 µM)	0.39 (≈ 1.12 µM)	0.78 (≈ 2.23 µM)	0.39 (≈ 1.12 µM)	0.78 (≈ 2.23 µM)	0.78 (≈ 2.23 µM)	3.13 (≈ 8.96 µM)	0.05 (≈ 0.143 µM)	0.05 (≈ 0.143 µM)	0.39 (≈ 1.12 µM)	3.13 (≈ 8.96 µM)	0.78 (≈ 2.23 µM)	0.78 (≈ 2.23 µM)	1.56 (≈ 4.47 µM)		MIC ([6]; Staphylococcus aureus): 0.39 µg/mL (≈ 1.12 µM); MIC [17, 24]: 0.2 µg/mL (≈ 0.573 µM); MIC ([20]; Staphylococcus aureus): 0.39 µg/mL (≈ 1.12 µM)
Cc1cn(-c2c(F)cc3c(=O)c(C(=O)O)cn4c3c2OCN4C)cn1 [Example 22]	0.1 (≈ 0.29 µM)	0.2 (≈ 0.581 µM)	0.39 (≈ 1.13 µM)	3.13 (≈ 9.09 µM)	0.1 (≈ 0.29 µM)	0.39 (≈ 1.13 µM)	0.1 (≈ 0.29 µM)	0.1 (≈ 0.29 µM)	0.1 (≈ 0.29 µM)	0.78 (≈ 2.27 µM)	0.1 (≈ 0.29 µM)	3.13 (≈ 9.09 µM)	0.0065 (≈ 0.0189 µM)	0.05 (≈ 0.145 µM)	0.78 (≈ 2.27 µM)	6.25 (≈ 18.2 µM)	0.39 (≈ 1.13 µM)	1.56 (≈ 4.53 µM)	1.56 (≈ 4.53 µM)	0.2 (≈ 0.581 µM)	MIC [17, 24]: 0.025 µg/mL (≈ 0.0726 µM); MIC [20, 26]: 0.2 µg/mL (≈ 0.581 µM)
CC1Oc2c(N3CCNCC3)c(F)cc3c(=O)c(C(=O)O)cn(c23)N1C (stereo not drawn) [Example 25]	0.39 (≈ 1.08 µM)	6.25 (≈ 17.2 µM)	6.25 (≈ 17.2 µM)	50 (≈ 138 µM)	0.39 (≈ 1.08 µM)	12.5 (≈ 34.5 µM)	0.78 (≈ 2.15 µM)	0.78 (≈ 2.15 µM)	0.2 (≈ 0.552 µM)	25 (≈ 69 µM)	0.78 (≈ 2.15 µM)	100 (≈ 276 µM)	0.1 (≈ 0.276 µM)	0.78 (≈ 2.15 µM)	3.13 (≈ 8.64 µM)	50 (≈ 138 µM)	3.13 (≈ 8.64 µM)	100 (≈ 276 µM)	3.13 (≈ 8.64 µM)	1.56 (≈ 4.31 µM)	MIC ([17]; Escherichia coli, NR2630, read-out: minimum inhibitory concentration (MIC)): 0.39 µg/mL (≈ 1.08 µM); MIC [20, 26]: 6.25 µg/mL (≈ 17.2 µM)
CN1CCN(c2c(F)cc3c(=O)c(C(=O)O)cn4c3c2OC(CO)N4C)CC1 (stereo not drawn) [Example 27]	0.2 (≈ 0.51 µM)	6.25 (≈ 15.9 µM)	6.25 (≈ 15.9 µM)	50 (≈ 127 µM)	0.2 (≈ 0.51 µM)	12.5 (≈ 31.9 µM)	0.78 (≈ 1.99 µM)	0.2 (≈ 0.51 µM)	0.39 (≈ 0.994 µM)	12.5 (≈ 31.9 µM)	0.78 (≈ 1.99 µM)	50 (≈ 127 µM)	0.2 (≈ 0.51 µM)	0.39 (≈ 0.994 µM)	3.13 (≈ 7.98 µM)	25 (≈ 63.7 µM)	3.13 (≈ 7.98 µM)	25 (≈ 63.7 µM)	3.13 (≈ 7.98 µM)	1.56 (≈ 3.98 µM)	MIC [20, 26]: 1.56 µg/mL (≈ 3.98 µM)
CC(=O)N1CCN(c2c(F)cc3c(=O)c(C(=O)O)cn4c3c2OCN4C)CC1 [Example 50, 10-(4-acetyl-1-piperazinyl)-9-fluoro-3-methyl-7-oxo-2,3-dihydro-7H-pyrido[3,2,1-ij]-1,3,4-benzoxadiazine-6-carboxylic acid]		0.2 (≈ 0.512 µM)	0.39 (≈ 0.999 µM)	12.5 (≈ 32 µM)	0.78 (≈ 2 µM)		1.56 (≈ 4 µM)	3.13 (≈ 8.02 µM)	0.78 (≈ 2 µM)	6.25 (≈ 16 µM)	1.56 (≈ 4 µM)	3.13 (≈ 8.02 µM)	0.39 (≈ 0.999 µM)	0.0065 (≈ 0.0167 µM)	3.13 (≈ 8.02 µM)	25 (≈ 64 µM)	6.25 (≈ 16 µM)	3.13 (≈ 8.02 µM)	6.25 (≈ 16 µM)	0.1 (≈ 0.256 µM)	MIC ([7]; Staphylococcus aureus, NR2855, read-out: minimum inhibitory concentration (MIC)): 0.39 µg/mL (≈ 0.999 µM); MIC [17, 24]: 0.2 µg/mL (≈ 0.512 µM); MIC ([20]; Staphylococcus aureus): 0.39 µg/mL (≈ 0.999 µM)
